{"source": "ChEMBL document CHEMBL5260817", "about": "“Polyamine-based analogs and conjugates as antikinetoplastid agents” (Eur J Med Chem, 2017)", "key": {"[1]": {"biological_target": "Glutathione reductase, mitochondrial (Homo sapiens, UniProt P00390)", "sequence (P00390 whole entry)": "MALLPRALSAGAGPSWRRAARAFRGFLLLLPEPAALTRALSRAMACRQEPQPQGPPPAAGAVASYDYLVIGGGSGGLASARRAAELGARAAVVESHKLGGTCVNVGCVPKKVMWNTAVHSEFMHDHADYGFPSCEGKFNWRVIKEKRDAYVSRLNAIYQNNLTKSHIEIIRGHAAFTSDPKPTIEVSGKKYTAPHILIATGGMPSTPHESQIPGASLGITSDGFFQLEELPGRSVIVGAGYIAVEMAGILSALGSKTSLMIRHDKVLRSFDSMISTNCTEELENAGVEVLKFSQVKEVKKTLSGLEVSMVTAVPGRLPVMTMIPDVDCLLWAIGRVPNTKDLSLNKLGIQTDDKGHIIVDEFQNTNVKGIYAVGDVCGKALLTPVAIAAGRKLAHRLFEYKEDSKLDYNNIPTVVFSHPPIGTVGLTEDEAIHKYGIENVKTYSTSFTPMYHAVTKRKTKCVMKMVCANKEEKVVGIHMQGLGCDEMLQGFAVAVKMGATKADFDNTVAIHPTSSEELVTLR", "assay": "Inhibition of human glutathione reductase"}, "[2]": {"system": "Leishmania donovani", "assay": "Antiprotozoal activity against Leishmania donovani promastigotes", "type": "functional, organism-based"}, "[3]": {"system": "Trypanosoma", "assay": "Inhibition of Trypanosomal TryS at 10 uM relative to control"}, "[4]": {"biological_target": "T1, Trypanothione reductase (Trypanosoma cruzi, UniProt P28593)", "T1 sequence (P28593 whole entry)": "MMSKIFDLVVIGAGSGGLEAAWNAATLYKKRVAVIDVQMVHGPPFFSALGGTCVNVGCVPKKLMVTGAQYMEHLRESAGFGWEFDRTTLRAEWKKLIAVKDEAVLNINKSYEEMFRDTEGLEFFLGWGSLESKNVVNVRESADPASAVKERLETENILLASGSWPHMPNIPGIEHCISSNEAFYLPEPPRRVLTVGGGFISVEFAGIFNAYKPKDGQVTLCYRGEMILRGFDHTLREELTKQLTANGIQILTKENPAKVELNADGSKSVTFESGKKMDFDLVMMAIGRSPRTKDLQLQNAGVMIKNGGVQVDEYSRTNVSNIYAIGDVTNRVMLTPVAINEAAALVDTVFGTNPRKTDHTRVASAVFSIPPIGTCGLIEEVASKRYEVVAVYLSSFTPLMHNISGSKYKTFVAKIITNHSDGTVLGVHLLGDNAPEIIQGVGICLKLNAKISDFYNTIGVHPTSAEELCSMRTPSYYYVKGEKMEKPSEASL", "assay": "Inhibition of Trypanosoma cruzi TryR"}, "[5]": {"system": "Leishmania braziliensis", "assay": "Antiprotozoal activity against Leishmania braziliensis MHOM/PE/84/LC26 amastigotes infected in mouse J774.2 cells measured after 72 hrs", "type": "functional, organism-based", "conditions": "J774.2, 72 h"}, "[6]": {"system": "Trypanosoma brucei", "assay": "Trypanocidal activity against Trypanosoma brucei K 269 strain", "type": "functional, organism-based"}, "[7]": {"system": "Trypanosoma brucei", "assay": "Trypanocidal activity against Trypanosoma brucei K 243-As-10-3 strain", "type": "functional, organism-based"}, "[8]": {"system": "Trypanosoma brucei", "assay": "Trypanocidal activity against Trypanosoma brucei K 243 strain", "type": "functional, organism-based"}, "[9]": {"biological_target": "Trypanothione reductase (Trypanosoma brucei brucei, UniProt P39051)", "sequence (P39051 whole entry)": "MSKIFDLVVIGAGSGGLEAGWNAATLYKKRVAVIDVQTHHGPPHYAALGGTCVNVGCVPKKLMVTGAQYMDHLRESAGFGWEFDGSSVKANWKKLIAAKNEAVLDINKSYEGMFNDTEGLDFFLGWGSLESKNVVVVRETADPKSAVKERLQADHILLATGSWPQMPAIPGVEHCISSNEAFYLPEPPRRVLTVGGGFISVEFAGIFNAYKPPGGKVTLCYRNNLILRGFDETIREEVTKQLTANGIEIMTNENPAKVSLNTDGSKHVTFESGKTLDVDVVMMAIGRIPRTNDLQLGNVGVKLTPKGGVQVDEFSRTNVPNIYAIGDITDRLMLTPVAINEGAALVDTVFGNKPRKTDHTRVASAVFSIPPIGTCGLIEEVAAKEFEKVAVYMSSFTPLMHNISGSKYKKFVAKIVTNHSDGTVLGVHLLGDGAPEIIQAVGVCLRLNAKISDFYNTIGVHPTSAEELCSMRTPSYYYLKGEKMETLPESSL", "assay": "Inhibition of Trypanosoma brucei TryR assessed as inhibition constant"}, "[10]": {"system": "Trypanosoma brucei", "assay": "Trypanocidal activity against Trypanosoma brucei Lab 110 strain", "type": "functional, organism-based"}, "[11]": {"biological_target": "T1, Trypanothione reductase", "assay": "Inhibition of Trypanosoma cruzi TryR assessed as inhibition constant"}, "[12]": {"assay": "Inhibition of TryR (unknown origin) assessed as inhibition constant", "parameters": "species or system Bacteria"}, "[13]": {"biological_target": "T1, Trypanothione reductase", "assay": "Inhibition of Trypanosoma cruzi TryR assessed as inhibition constant in presence of NADPH"}, "[14]": {"system": "Trypanosoma brucei", "assay": "Antiprotozoal activity against Trypanosoma brucei", "type": "functional, organism-based"}, "[15]": {"system": "Trypanosoma brucei rhodesiense", "assay": "Antiprotozoal activity against Trypanosoma brucei rhodesiense", "type": "functional, organism-based"}, "[16]": {"system": "Trypanosoma cruzi", "assay": "Antiprotozoal activity against Trypanosoma cruzi", "type": "functional, organism-based"}, "[17]": {"system": "Leishmania donovani", "assay": "Antiprotozoal activity against Leishmania donovani", "type": "functional, organism-based"}, "[18]": {"system": "Trypanosoma brucei brucei", "assay": "Antiprotozoal activity against Trypanosoma brucei brucei", "type": "functional, organism-based"}, "[19]": {"system": "Leishmania donovani", "assay": "Antiprotozoal activity against Leishmania donovani amastigotes assessed as growth inhibition measured after 7 days relative to control", "type": "functional", "conditions": "time 7 day"}, "[20]": {"assay": "Inhibition of Trypanosoma brucei MetRS"}, "[21]": {"system": "Leishmania amazonensis", "assay": "Antiprotozoal activity against Leishmania amazonensis promastigotes measured after 48 hrs by MTT assay", "type": "functional, organism-based"}, "[22]": {"system": "Leishmania donovani", "assay": "Antiprotozoal activity against Leishmania donovani MHOM/IN/1978/UR6 strain promastigotes assessed as parasite growth inhibition", "type": "functional, organism-based"}}}
{"molecule": "CCCCN(CCCC)CCCNC(=O)CCCCC1=C(C)C(=O)c2ccccc2C1=O", "values": [{"measurement": "IC50", "setting": "[1]", "value": "> 40", "unit": "µM"}]}
{"molecule": "COc1cc(CN(CCCN)Cc2ccc(OCc3ccccc3)c(OC)c2)ccc1OCc1ccccc1", "values": [{"measurement": "IC50", "setting": "[2]", "value": "< 1", "unit": "µM"}]}
{"molecule": "CNCCNC(=O)CN1C(=O)Cc2c([nH]c3ccc(Br)cc23)-c2ccccc21", "values": [{"measurement": "inhibition", "setting": "[3]", "value": 90, "unit": "%"}]}
{"molecule": "NCCCN1CCN(CCCNC2=C(c3c[nH]c4ccccc34)C(=O)N(CCCN3CCN(CCCN)CC3)C2=O)CC1", "values": [{"measurement": "IC50", "setting": "[4]", "value": 5.4, "unit": "µM"}]}
{"molecule": "CN1CCN(CCC(=O)Nc2cc(Br)ccc2Sc2cccc(NC(=O)CCCC(=O)Nc3cccc(Sc4ccc(Br)cc4NC(=O)CCN4CCN(C)CC4)c3)c2)CC1", "values": [{"measurement": "IC50", "setting": "[5]", "value": 0.55, "unit": "µM"}]}
{"molecule": "COc1cc(CN(CCCN)Cc2ccc(OCc3ccc(Br)cc3)c(OC)c2)ccc1OCc1ccc(Br)cc1", "values": [{"measurement": "IC50", "setting": "[2]", "value": "< 1", "unit": "µM"}]}
{"molecule": "c1ccc(CCCNCCCN(CCCCN(CCCNCCCc2ccccc2)CCCc2ccccc2)CCCc2ccccc2)cc1", "values": [{"measurement": "IC50", "setting": "[6]", "value": 0.1, "unit": "µM"}, {"measurement": "IC50", "setting": "[7]", "value": 0.1, "unit": "µM"}, {"measurement": "IC50", "setting": "[8]", "value": 0.1, "unit": "µM"}, {"measurement": "Ki", "setting": "[9]", "value": 0.6, "unit": "µM"}, {"measurement": "IC50", "setting": "[10]", "value": 0.1, "unit": "µM"}]}
{"molecule": "NCCCCN(CCCN)C(=O)OCc1ccccc1", "values": [{"measurement": "Ki", "setting": "[11]", "value": "> 100", "unit": "µM"}]}
{"molecule": "O=C(NCCCCNCCCNC(=O)c1cnc2cc(C(F)(F)F)ccc2c1O)c1cnc2cc(C(F)(F)F)ccc2c1O", "values": [{"measurement": "Ki", "setting": "[12]", "value": 0.85, "unit": "µM"}]}
{"molecule": "CC(=O)N(CCCN)CCCCN", "values": [{"measurement": "Ki", "setting": "[13]", "value": "> 2000", "unit": "µM"}]}
{"molecule": "c1ccc2cc(CNCCCCNCCCNCc3ccc4ccccc4c3)ccc2c1", "values": [{"measurement": "IC50", "setting": "[14]", "value": 0.19, "unit": "µM"}]}
{"molecule": "NCCCCNCCCNC(=O)C(=O)c1c[nH]c2ccccc12", "values": [{"measurement": "IC50", "setting": "[15]", "value": "> 40", "unit": "µM"}, {"measurement": "IC50", "setting": "[16]", "value": "> 40", "unit": "µM"}, {"measurement": "IC50", "setting": "[17]", "value": "> 40", "unit": "µM"}]}
{"molecule": "c1ccc(-c2cccc(CNCCCNCCCCCCCNCCCNCc3cccc(-c4ccccc4)c3)c2)cc1", "values": [{"measurement": "IC50", "setting": "[14]", "value": 1, "unit": "µM"}]}
{"molecule": "O=C(NCCCCNCCCNC(=O)C(F)(F)F)C(F)(F)F", "values": [{"measurement": "Ki", "setting": "[13]", "value": "> 2000", "unit": "µM"}]}
{"molecule": "NCCCNCCCCNCCCNCCCc1ccccc1", "values": [{"measurement": "Ki", "setting": "[11]", "value": 37, "unit": "µM"}]}
{"molecule": "O=C(Cc1ccccc1)NCCCNCCCCNCCCNC(=O)Cc1ccccc1", "values": [{"measurement": "Ki", "setting": "[9]", "value": "> 100", "unit": "µM"}]}
{"molecule": "CCCNCCCNC(=O)CNC(=O)[C@H](CC(Br)C(Br)C[C@H](NC(=O)OCc1ccccc1)C(=O)NCC(=O)NCCCNCCC)NC(=O)OCc1ccccc1", "note": "(some centres not stated)", "values": [{"measurement": "Ki", "setting": "[11]", "value": 15.9, "unit": "µM"}]}
{"molecule": "CN1CCN(CCCNC(=O)CCCCCC2=C(CCCCCC(=O)NCCCN3CCN(C)CC3)C(=O)c3c(N)cccc3C2=O)CC1", "values": [{"measurement": "IC50", "setting": "[4]", "value": 0.8, "unit": "µM"}]}
{"molecule": "CC(C)(C)OC(=O)N(CCCN)CCCCN", "values": [{"measurement": "Ki", "setting": "[13]", "value": "> 2000", "unit": "µM"}]}
{"molecule": "NCCCCNCCCNC(=O)C(=O)c1c[nH]c2cc(Br)ccc12", "values": [{"measurement": "IC50", "setting": "[15]", "value": "> 40", "unit": "µM"}, {"measurement": "IC50", "setting": "[16]", "value": "> 40", "unit": "µM"}, {"measurement": "IC50", "setting": "[17]", "value": "> 40", "unit": "µM"}]}
{"molecule": "COc1ccc2c(C(=O)C(=O)NCCCNCCCCCCCCCCCCNCCCNC(=O)C(=O)c3c[nH]c4cc(OC)ccc34)c[nH]c2c1", "values": [{"measurement": "IC50", "setting": "[18]", "value": 0.18, "unit": "µM"}]}
{"molecule": "c1ccc(CNCCCNCCCCNCCCNCc2ccccc2)cc1", "values": [{"measurement": "Ki", "setting": "[9]", "value": 19, "unit": "µM"}]}
{"molecule": "CC(=O)NCCCCNCCCNC(C)=O", "values": [{"measurement": "Ki", "setting": "[13]", "value": "> 2000", "unit": "µM"}]}
{"molecule": "COC(=O)/N=C(\\NCCCN1CCN(C)CC1)NC(=O)OC", "values": [{"measurement": "inhibition (INH)", "setting": "[19]", "value": 85, "unit": "%"}]}
{"molecule": "NCCCN(CCCCN(CCCN)CCCc1ccccc1)CCCc1ccccc1", "values": [{"measurement": "IC50", "setting": "[6]", "value": 0.5, "unit": "µM"}, {"measurement": "IC50", "setting": "[7]", "value": 0.5, "unit": "µM"}, {"measurement": "IC50", "setting": "[8]", "value": 0.5, "unit": "µM"}, {"measurement": "Ki", "setting": "[9]", "value": 3, "unit": "µM"}, {"measurement": "IC50", "setting": "[10]", "value": 0.5, "unit": "µM"}]}
{"molecule": "C(CCCNCCCNCC1CCCCCC1)CCCNCCCNCC1CCCCCC1", "values": [{"measurement": "IC50", "setting": "[15]", "value": 0.16, "unit": "µM"}]}
{"molecule": "Fc1ccc2[nH]c(NCCCNCc3cc(Cl)cc(Cl)c3)nc2n1", "values": [{"measurement": "IC50", "setting": "[20]", "value": 0.001, "unit": "µM"}, {"measurement": "IC50", "setting": "[14]", "value": 0.004, "unit": "µM"}]}
{"molecule": "NCCCCN(CCCN)Cc1ccc2ccccc2c1", "values": [{"measurement": "Ki", "setting": "[11]", "value": "> 100", "unit": "µM"}]}
{"molecule": "CC(C)=CCC/C(C)=C/CC/C(C)=C/CNCCCN", "values": [{"measurement": "IC50", "setting": "[21]", "value": 4.9, "unit": "µM"}]}
{"molecule": "c1ccc(CNCCCCNCCCCCCCCCCCCNCCCNCc2ccccc2)cc1", "values": [{"measurement": "IC50", "setting": "[22]", "value": 4, "unit": "µM"}]}
{"molecule": "CC[C@H](C)CNCCCNCCCCCCCNCCCNC[C@@H](C)CC", "values": [{"measurement": "IC50", "setting": "[18]", "value": 0.04, "unit": "µM"}]}
{"molecule": "CCCNCCCNC(=O)CNC(=O)[C@H](CCCC[C@H](NC(=O)OCC1c2ccccc2-c2ccccc21)C(=O)NCC(=O)NCCCNCCC)NC(=O)OCC1c2ccccc2-c2ccccc21", "values": [{"measurement": "Ki", "setting": "[11]", "value": 2, "unit": "µM"}]}
{"molecule": "OCCn1c(CNCCCNc2nc3ccccc3[nH]2)cc2c(Cl)cc(Cl)cc21", "values": [{"measurement": "IC50", "setting": "[20]", "value": "< 0.025", "unit": "µM"}, {"measurement": "IC50", "setting": "[14]", "value": 0.001, "unit": "µM"}]}
